pIC50: −log10 of the molar value. Activity calls are given as the source filed them. The calls are words filed in the database; no cut-off is given here.
Key:
LNCaP [1] = assay: Antiproliferative activities against human LNCaP cells assessed as cell viability measured after 72 hrs by CCK8 assay; assay type: functional, cell-based
LNCaP C4-2B [2] = assay: Antiproliferative activities against human LNCaP C4-2B cells assessed as cell viability measured after 72 hrs by CCK8 assay; assay type: functional, cell-based
LNCaP C4-2B [3] = assay: Induction of apoptosis in human LNCaP C4-2B cells assessed as apoptotic cells at 5 uM measured after 48 hrs of incubation by Annexin V-FITC staining based flow cytometry relative to control; assay type: functional
LNCaP C4-2B [4] = assay: Induction of apoptosis in human LNCaP C4-2B cells assessed as apoptotic cells at 10 uM measured after 48 hrs of incubation by Annexin V-FITC staining based flow cytometry relative to control; assay type: functional
LNCaP C4-2B [5] = assay: Induction of apoptosis in human LNCaP C4-2B cells assessed as apoptotic cells at 20 uM measured after 48 hrs of incubation by Annexin V-FITC staining based flow cytometry relative to control; assay type: functional
LNCaP C4-2B [6] = assay: Induction of apoptosis in human LNCaP C4-2B cells assessed as apoptotic cells at 40 uM measured after 48 hrs of incubation by Annexin V-FITC staining based flow cytometry relative to control; assay type: functional
LNCaP C4-2B [7] = assay: Induction of cell cycle arrest in human LNCaP C4-2B cells assessed as accumulation cells at G0/G1 phase at 5 uM measured after 48 hrs incubation by flow cytometry (reference value: 70.82%); assay type: functional
LNCaP C4-2B [8] = assay: Induction of cell cycle arrest in human LNCaP C4-2B cells assessed as accumulation cells at G2/M phase at 5 uM measured after 48 hrs incubation by flow cytometry (reference value: 10.85%); assay type: functional
LNCaP C4-2B [9] = assay: Induction of cell cycle arrest in human LNCaP C4-2B cells assessed as accumulation cells at S phase at 5 uM measured after 48 hrs incubation by flow cytometry (reference value: 18.33%); assay type: functional
LNCaP C4-2B [10] = assay: Induction of cell cycle arrest in human LNCaP C4-2B cells assessed as accumulation cells at G0/G1 phase at 10 uM measured after 48 hrs incubation by flow cytometry (reference value: 70.82%); assay type: functional
LNCaP C4-2B [11] = assay: Induction of cell cycle arrest in human LNCaP C4-2B cells assessed as accumulation cells at G2/M phase at 10 uM measured after 48 hrs incubation by flow cytometry (reference value: 10.85%); assay type: functional
LNCaP C4-2B [12] = assay: Induction of cell cycle arrest in human LNCaP C4-2B cells assessed as accumulation cells at S phase at 10 uM measured after 48 hrs incubation by flow cytometry (reference value: 18.33%); assay type: functional
LNCaP C4-2B [13] = assay: Induction of cell cycle arrest in human LNCaP C4-2B cells assessed as accumulation cells at G0/G1 phase at 20 uM measured after 48 hrs incubation by flow cytometry (reference value: 70.82%); assay type: functional
LNCaP C4-2B [14] = assay: Induction of cell cycle arrest in human LNCaP C4-2B cells assessed as accumulation cells at G2/M phase at 20 uM measured after 48 hrs incubation by flow cytometry (reference value: 10.85%); assay type: functional
LNCaP C4-2B [15] = assay: Induction of cell cycle arrest in human LNCaP C4-2B cells assessed as accumulation cells at S phase at 20 uM measured after 48 hrs incubation by flow cytometry (reference value: 18.33%); assay type: functional
LNCaP C4-2B [16] = assay: Induction of cell cycle arrest in human LNCaP C4-2B cells assessed as accumulation cells at G0/G1 phase at 40 uM measured after 48 hrs incubation by flow cytometry (reference value: 70.82%); assay type: functional
LNCaP C4-2B [17] = assay: Induction of cell cycle arrest in human LNCaP C4-2B cells assessed as accumulation cells at G2/M phase at 40 uM measured after 48 hrs incubation by flow cytometry (reference value: 10.85%); assay type: functional
LNCaP C4-2B [18] = assay: Induction of cell cycle arrest in human LNCaP C4-2B cells assessed as accumulation cells at S phase at 40 uM measured after 48 hrs incubation by flow cytometry (reference value: 18.33%); assay type: functional
LNCaP [19] = assay: Inhibition of AR protein expression in human LNCaP cells measured after 48 hrs by Western blot analysis; assay type: functional, cell-based; conditions: dose 12.5-50 µM
LNCaP C4-2B [20] = assay: Inhibition of AR protein expression in human LNCaP C4-2B cells measured after 48 hrs by Western blot analysis; assay type: functional, cell-based; conditions: dose 12.5-50 µM
LNCaP C4-2B [21] = assay: Inhibition of colony formation in human LNCaP C4-2B cells measured after 14 days incubation by Crystal-violet staining based assay; assay type: functional, cell-based; conditions: dose 10-40 µM, time 14.0 day

`COC(=O)c1ccc(Cl)cc1NC(=O)COc1ccc(OC)c2ccccc12` was tested, and the Activity (LNCaP [1]) was “inactive”.

`COC(=O)c1ccc(C(F)(F)F)cc1NC(=O)COc1cccc2ccccc12` was tested, and the Activity (LNCaP [1]) was “inactive”.

`COC(=O)c1ccc(Cl)cc1NC(=O)COc1ccc(F)c2ccccc12` was tested, and the Activity (LNCaP [1]) was “inactive”.

In the case of `COC(=O)c1ccc(I)cc1NC(=O)COc1cccc2ccccc12`, the pIC50 (LNCaP [1]) was 4.91, the pIC50 (LNCaP C4-2B [2]) was 5.06 and the Activity (LNCaP C4-2B [3]) was 34.5%. The Activity (LNCaP C4-2B [4]) was 79%, the Activity (LNCaP C4-2B [5]) was 92.9% and the Activity (LNCaP C4-2B [6]) was 96.6%. The Activity (LNCaP C4-2B [7]) was 70.84%, the Activity (LNCaP C4-2B [8]) was 11.05% and the Activity (LNCaP C4-2B [9]) was 18.11%. For the same compound, the Activity (LNCaP C4-2B [10]) was 71.03%, the Activity (LNCaP C4-2B [11]) was 11.44% and the Activity (LNCaP C4-2B [12]) was 17.53%. It also gave an Activity (LNCaP C4-2B [13]) of 77.27%, an Activity (LNCaP C4-2B [14]) of 10.12% and an Activity (LNCaP C4-2B [15]) of 12.61%. The Activity (LNCaP C4-2B [16]) was 79.62%, the Activity (LNCaP C4-2B [17]) was 8.84% and the Activity (LNCaP C4-2B [18]) was 11.54%. For the same compound, the inhibition (LNCaP [19]) was “Dose-Dependent Effect” and the inhibition (LNCaP C4-2B [20]) was “Dose-Dependent Effect”.

`O=C(COc1cccc2ccccc12)Nc1cc(Cl)ccc1C(=O)O` was tested, and the pIC50 (LNCaP [1]) was less than 4.30 and the Activity (LNCaP C4-2B [2]) was “inactive”.

With `CNC(=O)c1ccc(Cl)cc1NC(=O)COc1cccc2ccccc12` the pIC50 (LNCaP [1]) was 4.47.

`COC(=O)c1ccc(Cl)cc1NC(=O)COc1ccc(Cl)c2ccccc12` was tested, and the pIC50 (LNCaP [1]) was 4.70.

`COC(=O)c1ccc(Cl)cc1NC(=O)COc1ccnc2ccccc12` gave a pIC50 (LNCaP [1]) of 4.49.

Work on `COC(=O)c1ccc(Cl)cc1NC(=O)COc1cccc2ccccc12` yielded a pIC50 (LNCaP [1]) of 4.77 and a pIC50 (LNCaP C4-2B [2]) of 4.47.

Work on `COC(=O)c1ccc(Br)cc1NC(=O)COc1cccc2ccccc12` yielded a pIC50 (LNCaP [1]) of 4.31.

`COC(=O)c1ccc(Cl)cc1NC(=O)C(C)Oc1cccc2ccccc12` (stereo not given) gave a pIC50 (LNCaP [1]) of 4.72.

In the case of `COC(=O)c1ccc(C)cc1NC(=O)COc1cccc2ccccc12`, the Activity (LNCaP [1]) was “inactive”.

`COC(=O)c1ccc(Cl)cc1NC(=O)COc1cccc2cnccc12` gave a pIC50 (LNCaP [1]) of 4.60.

With `COC(=O)c1ccc(Cl)cc1NC(=O)COc1ccc(Br)c2ccccc12` the pIC50 (LNCaP [1]) was 4.88, the pIC50 (LNCaP C4-2B [2]) was less than 4.30 and the inhibition (LNCaP C4-2B [21]) was “Dose-Dependent Effect”.

In the case of `COC(=O)c1ccc(OC)cc1NC(=O)COc1cccc2ccccc12`, the pIC50 (LNCaP [1]) was 4.71.

Compound `COC(=O)c1ccc(F)cc1NC(=O)COc1cccc2ccccc12` has a pIC50 (LNCaP [1]) of 4.49.

Compound `COC(=O)c1cc(F)c(Cl)cc1NC(=O)COc1cccc2ccccc12` has a pIC50 (LNCaP [1]) of 4.38.

Source: ChEMBL document CHEMBL5523674, “Design, synthesis, and biological evaluation of 2-(naphthalen-1-yloxy)-N-phenylacetamide derivatives as TRPM4 inhibitors for the treatment of prostate cancer” (Bioorg Med Chem, 2024)
